Series [1] in a line: Pharmacokinetics of HAEE in rabbit blood after single i.v. bolus. It is filed as in vivo. As to the method:
In experiments on rabbits (Table 1, experimental group 1), peptide administration and blood sampling were performed through the large ear veins. To restrict movement, the rabbit was placed in a restrainer with a head hole. Into the right ear, through the large ear vein, 4000 IU of heparin (FSUE “Moscow Endocrine Plant”, Moscow, Russia) in 0.8 mL of saline solution was injected using an insulin syringe, and after 5 min a Flexicath G22 intravenous catheter (Medica LLC, Ivanovo, Russia) was installed into the large ear vein of the left ear for subsequent blood sampling.
A 0.5 mL of the mixture of HAEE and [^3H]HAEE (2000 µCi, at a dose of 120 µg/kg) was injected with an insulin syringe into the right ear vein for 10–15 s, and after 2, 4, 6, 10, 20, 30, 60, 90 and 120 min, approximately 0.5 mL of venous blood was collected through the catheter and placed into pre-weighed plastic tubes. Immediately after collection, blood tubes were frozen in liquid nitrogen and weighed.
Frozen and weighed tissue samples in plastic tubes were freeze-dried for 48 h. The freeze-dried tissue samples were heated at 65 °C for 30 min, after which they were homogenized, and the peptide fraction was extracted with 90% aqueous acetonitrile containing 1% TFA [13]. To facilitate HPLC analysis of radioactively labeled HAEE and normalize the loss of the peptide during extraction, 10 μg of HAEE was added to the extraction solution for each sample. After centrifugation, the solution containing HAEE and blood components was dried under reduced pressure, stripped with methanol and re-centrifuged. The resulting solution containing a mixture of HAEE and [^3H]HAEE was subjected to evaporation under reduced pressure, re-extraction with 0.1% aqueous TFA solution and subsequent centrifugation. Quantitative analysis of the HAEE peptide was performed using HPLC on a Kromasil C18 column, 4 × 150 mm (Nouryon-Separation Products, Bohus, Sweden) in methanol concentration gradient (12–26% for 13 min), in 0.1% HFBA (heptafluorobutyric acid). The fraction containing the HAEE peptide was collected and its [^3H]HAEE content was determined by liquid scintillation counting. The obtained radioactivity value was normalized to the area of the HAEE peak in the chromatogram (UV absorbance at 220 nm).
To calculate the pharmacokinetic parameters, we used the values of HAEE peptide concentrations in blood and tissues averaged over three (rabbit) or six (rats and mice) animals. All quantitative values are given as means ± standard deviation. The calculation of pharmacokinetic parameters was performed by combining the model and non-model approaches using the software Borgia 1.03 (NPP Nauka Plus, Rovno, Ukraine) and SigmaPlot 11.0 (Systat Software, San Jose, CA, USA).
Taking this into account, to determine the pharmacokinetic characteristics of HAEE after systemic administration to rabbits, we analyzed the peptide content in the blood for a long period of time, from 2 to 120 min. The peptide was administered i.v. at a dose of 120 μg/kg.

The nature of series [2]: In vitro stability assay of HAEE in human plasma. To be noted: 1 mM in PBS, 20 µL diluted in 80 µL fresh human plasma, 37 °C, 24 h, MeOH precipitation, RP-HPLC UV 205 nm; data not shown. It counts as in vitro ADME. As to the method: An in vitro assay of the unlabeled peptide stability was performed as described in [19]. Briefly, HAEE was prepared as a 1 mM solution in phosphate-buffered saline and 20 µL of the peptide solution was diluted in 80 µL of human plasma (freshly taken). The solution was incubated at 37 °C for different times, and the reaction was stopped by adding the Roche cOmplete Protease Inhibitor Cocktail (Roche Molecular Biochemicals, Mannheim, Germany). The bulk of the plasma proteins (but none of the peptide) was precipitated in cold methanol (1:4 (v/v) mixture/MeOH) for 1 h at […]. The precipitated proteins were pelleted by centrifugation at 10,000× g for 10 min at 4 °C. The supernatant containing the peptide was concentrated five times under vacuum and separated by RP-HPLC. The area of the peak (UV absorbance at 205 nm) corresponding to the intact peptide was measured and compared with an equivalent sample incubated in phosphate-buffered saline.

A further series relates to rats. Put plainly: Observation of toxic effects after repeated administration to rats. To be noted: administered repeatedly (daily for 28 days, 300 μg/kg).
Setting [3] is: rabbit blood, single i.v. bolus 120 μg/kg, n = 3.
Where [4] appears, read: rabbit, single i.v. bolus 120 μg/kg, n = 3.

By Tmax is commonly meant the time at which the peak concentration occurs. In the case of Acetyl-His-Ala-Glu-Glu-Amide [HAEE], in series [1] (rabbit blood, single i.v. bolus 120 μg/kg HAEE + [3H]HAEE, n = 3, sampling 2-120 min, HPLC + liquid scintillation), the “Cmax (maximum concentration in the blood)” value was found to be 255 ng/mL. Besides, in series [1] (setting [3]), the “T1/2(el) (elimination half-life)” value is listed as 20 min and the Tmax came out at 4 min. Also, in series [1] (rabbit blood, single i.v. bolus 120 μg/kg, n = 3, 0-4 min by trapezoidal method), the “AUC(0–∞)” value is recorded as 4421 (ng/mL) × min. For the same substance, in series [1] (setting [4]), the “ClT (total body clearance)” value is 100 mL/min; the “Kel (elimination rate constant, central compartment)” value worked out at 0.035 min⁻¹; the “MRT (residence time)” value is on record as 29 min; the “Vd(c) (volume of distribution in the central compartment at Cmax)” value came to 862 mL. For the same substance, in series [1] (setting [4]), the “Vd(extrap)” value is 3194 mL and the “Vd(β) (volume of distribution in the elimination phase)” value was determined as 2860 mL. For the same substance, in series [2], the “Stability in human plasma (intact peptide peak area vs sample in PBS)” value is “no significant degradation”. In the series with rats, the “Visible toxic effects and abnormalities in animal behavior” value was “did not cause visible toxic effects and abnormalities in animal behavior”.

Source of the values: article PMC8234734, “Pharmacokinetics and Molecular Modeling Indicate nAChRα4-Derived Peptide HAEE Goes through the Blood–Brain Barrier” (Biomolecules, 2021).
